Reference: patent publication US6348445B1, “Biologically active peptides with reduced toxicity in animals and a method for preparing same” (priority 1992, dated 2002)
Where no end group is shown, it is not given here.

Experiments:
Assay type in all cases: cell-based
[1] = system: P. aeruginosa strain ATCC 27853; conditions: ATCC 27853
In short: (§1)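 Broth microdilution per NCCLS M7-T2: final peptide levels 0.25 to 256 μg/ml (twofold steps), inoculum 1-5×10^5 CFUs/ml in full-strength Mueller Hinton broth. MIC read as lowest concentration leaving the well clear after 16-20 hours at 37° C.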

[2] = system: E. coli ATCC strain 25922; test: Minimal Inhibitory Concentration, microtiter broth dilution; conditions: ATCC strain 25922
In short: as §1

S. aureus ATCC 29213 = conditions: ATCC 29213
[3] = system: K-562 human chronic myelogenous leukemia cells; conditions: 24 h
Description: (§2) Human lung carcinoma cells, A-549 (ATCC), and human breast carcinoma cells, MDA-435 (from Sandoz), were grown in Ham's F12K medium (GIBCO-BRL) supplemented with […] fetal bovine serum. Human chronic myelogenous leukemia cells, K-562 (ATCC), were maintained in RPMI 1640 medium (GIBCO-BRL) supplemented with 10% fetal bovine serum. Human melanoma cell line, WM 1617 (from the Wistar Institute), was maintained in 2% Tumor media.
(§3) Cytotoxicity assays were performed on the cell lines described above using CytoLite (Packard Instrument Company) following the manufacture's instruction. Briefly, 2×10^4cells/well were seeded into black, 96-well ViewPlates (Packard Instrument Company) in 100 μl/well growth medium. Ser. dilutions of Magainin peptides were then added into the cells and the plates incubated for 24 hours in a humidified 5% CO2 atmosphere at 37° C. Following incubation, 25 μl/well of CytoLite activator solution was added followed by 125 μl/well of amplifier solution. Luminescence was measured on TopCount Microplate Scintillation and Luminescence counter (Packard Instrument Company) using a 1 second count time in SPC (single photon counting) mode at 25 ° C. All assays were performed in triplicate. The peptides tested in this assay were MSI-78(SEQ ID NO: 154 —NH2), MSI-1858(SEQ ID NO: 154 —NH2 Methane Sulfonate), MSI-344(SEQ ID NO: 154 —OH) and MSI-1857(SEQ ID NO: 154 —OH Methane Sulfonate). The results of these assays are shown in FIGS. 2-9 with the corresponding IC50 values in Table VIII. In all cases the activity of the methane sulfonated peptide was as good or better than the parent peptide as indicated by both the survival curves and the IC50 values.

[4] = system: A-549 human lung carcinoma cells; conditions: 24 h
Description: as §2, §3

[5] = system: WM 1617 human melanoma cells; conditions: 24 h
Description: as §2, §3

[6] = system: MDA-435 human breast carcinoma cells; conditions: 24 h
Description: as §2, §3

GIGKFLKKAKKFGKAFVKILKK [MSI-78] was tested, and the “MIC P. aeruginosa ATCC 27853” value [1] was 16 to 32 µg/mL, the “MIC E. coli ATCC 25922” value [2] was 32 µg/mL and the “MIC S. aureus ATCC 29213” value (S. aureus ATCC 29213) was 16 µg/mL. It also gave an IC50 [3] of 9 µM, an IC50 [4] of 3 µM and an IC50 [5] of 3 µM. It also gave an IC50 [6] of 4 µM.
